Results reported in US20250339566A1, “INHIBITORS OF FIBROBLAST ACTIVATION PROTEIN” (UNIVERSITEIT ANTWERPEN, priority 2022, published 2025).

What was measured:
Assay type in all cases: biochemical
Human recombinant PREP = target: T1, Human recombinant PREP (Homo sapiens, UniProt P48147); assay: PREP IC50 measurement (N-succinyl-Gly-Pro-AMC); conditions: for Selectivity index PREP: IC50(PREP)/IC50(FAP); for IC50: N-succinyl-Gly-Pro-AMC 250 μM, pH 7.4
T1 construct: made in house; host or cells: E. coli BL21(DE3)
T1 sequence (P48147 1-710): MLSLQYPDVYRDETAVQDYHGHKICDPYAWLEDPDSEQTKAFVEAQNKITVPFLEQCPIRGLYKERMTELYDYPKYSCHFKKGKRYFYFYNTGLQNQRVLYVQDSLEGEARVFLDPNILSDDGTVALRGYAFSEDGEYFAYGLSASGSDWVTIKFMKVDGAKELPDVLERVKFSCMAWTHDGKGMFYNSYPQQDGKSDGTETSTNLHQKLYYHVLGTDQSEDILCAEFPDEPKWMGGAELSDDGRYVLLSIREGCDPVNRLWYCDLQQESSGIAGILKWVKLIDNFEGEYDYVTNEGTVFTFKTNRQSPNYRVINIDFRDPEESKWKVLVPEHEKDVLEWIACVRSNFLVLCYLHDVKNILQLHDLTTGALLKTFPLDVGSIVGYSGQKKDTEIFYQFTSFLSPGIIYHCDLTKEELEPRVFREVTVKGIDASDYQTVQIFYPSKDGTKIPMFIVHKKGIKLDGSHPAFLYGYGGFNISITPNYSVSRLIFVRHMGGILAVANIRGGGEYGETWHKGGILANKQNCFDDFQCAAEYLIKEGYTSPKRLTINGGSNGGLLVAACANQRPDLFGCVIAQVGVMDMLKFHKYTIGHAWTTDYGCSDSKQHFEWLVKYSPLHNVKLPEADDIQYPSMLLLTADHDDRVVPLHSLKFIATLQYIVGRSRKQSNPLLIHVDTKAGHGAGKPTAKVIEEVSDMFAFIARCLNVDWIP
Text: (§1) Used Enzymes in these Assays: • A gateway-entry clone for human FAP was purchased from Dharmacon (Accession number DQ891423) and the human secretion signal was replaced with the HoneyBee mellitin secretion signal. For transfection and expression of FAP in Sf9 insect cells the C-terminal BaculoDirect kit from LifeTechnologies was used. The enzyme was purified from the supernatant of the insect cells using immobilized Ni-chelating chromatography (GE healthcare, Diegem, Belgium), followed by anion-exchange chromatography using a 1 mL HiTrap Q and size exclusion chromatography using the Superdex 200 column (GE healthcare, Diegem, Belgium). • Human recombinant PREP was expressed in BL21(DE3) cells and purified using immobilized Co-chelating chromatography (GE healthcare), followed by anion-exchange chromatography on a 1 ml Mono Q column (GE healthcare). • DPP4 was purified from human seminal plasma. • Gateway-entry clones for human DPP8 and DPP9 were purchased from Dharmacon (Accession numbers DQ891733 and DQ892325 respectively). For transfection and expression of DPP8 and DPP9 in Sf9 insect cells the N-terminal BaculoDirect kit from LifeTechnologies was used. The enzymes were purified using immobilized Ni-chelating chromatography (GE healthcare, Diegem, Belgium), followed by anion-exchange chromatography using a 1 mL Mono Q (GE healthcare, Diegem, Belgium). • Recombinant human DPP2 was purchased from R&D.
(§2) Eight concentrations of inhibitors/probe were tested. The final DMSO concentration was kept constant during the experiment to exclude any effects. Inhibitors were pre-incubated with the enzyme for 15 minutes at 37° C., afterwards the substrate was added and the velocities of AMC release were measured kinetically at λex=380 nm, λem=465 nm for at least 10 minutes at 37° C. […] Eight concentrations of inhibitors were tested. The final DMSO concentration in kept constant during the experiment to exclude any effects. Inhibitors were pre-incubated with the enzyme for 15 minutes at 37° C., afterwards the substrate was added and the velocities of AMC release were measured kinetically at λex=380 nm, λem=465 nm for at least 10 minutes at 37° C. […] At least eight different inhibitor concentrations were used. The final DMSO concentration is kept constant during the experiment to exclude any effects. Inhibitors were pre-incubated with the enzyme for 15 minutes at 37° C., afterwards the substrate was added and the velocities of pNA release were measured kinetically at 405 nm for at least 10 minutes at 37° C. Measurements were done on the Infinite 200 (Tecan Group Ltd.) and the Magellan software was used to process the data. • For DPP2: Initial velocity measurements were carried out. Lys-Ala-pNA was used as the substrate at a concentration of 1 mM at pH 5.5 (100 mM NaAc, 10 mM EDTA, 14 μg/mL aprotinin). Inhibitors were tested at one concentration, 5 μM, being the final concentration in the well. Inhibitors were pre-incubated with the enzyme for 15 minutes at 37° C., afterwards the substrate was added and the velocities of pNA release were measured kinetically at 405 nm for at least 10 minutes at 37° C. Measurements were done on the Infinite 200 (Tecan Group Ltd.) and the Magellan software was used to process the data.

human DPP9 = target: T2, human DPP9 (Homo sapiens, UniProt Q86TI2); assay: DPP9 IC50 measurement (Ala-Pro-pNA); conditions: for IC50: Ala-Pro-pNA 150 μM, pH 7.4; for Selectivity index DPP9: IC50(DPP9)/IC50(FAP)
T2 construct: made in house; host or cells: Sf9 insect cells (baculovirus)
T2 sequence (Q86TI2 whole entry): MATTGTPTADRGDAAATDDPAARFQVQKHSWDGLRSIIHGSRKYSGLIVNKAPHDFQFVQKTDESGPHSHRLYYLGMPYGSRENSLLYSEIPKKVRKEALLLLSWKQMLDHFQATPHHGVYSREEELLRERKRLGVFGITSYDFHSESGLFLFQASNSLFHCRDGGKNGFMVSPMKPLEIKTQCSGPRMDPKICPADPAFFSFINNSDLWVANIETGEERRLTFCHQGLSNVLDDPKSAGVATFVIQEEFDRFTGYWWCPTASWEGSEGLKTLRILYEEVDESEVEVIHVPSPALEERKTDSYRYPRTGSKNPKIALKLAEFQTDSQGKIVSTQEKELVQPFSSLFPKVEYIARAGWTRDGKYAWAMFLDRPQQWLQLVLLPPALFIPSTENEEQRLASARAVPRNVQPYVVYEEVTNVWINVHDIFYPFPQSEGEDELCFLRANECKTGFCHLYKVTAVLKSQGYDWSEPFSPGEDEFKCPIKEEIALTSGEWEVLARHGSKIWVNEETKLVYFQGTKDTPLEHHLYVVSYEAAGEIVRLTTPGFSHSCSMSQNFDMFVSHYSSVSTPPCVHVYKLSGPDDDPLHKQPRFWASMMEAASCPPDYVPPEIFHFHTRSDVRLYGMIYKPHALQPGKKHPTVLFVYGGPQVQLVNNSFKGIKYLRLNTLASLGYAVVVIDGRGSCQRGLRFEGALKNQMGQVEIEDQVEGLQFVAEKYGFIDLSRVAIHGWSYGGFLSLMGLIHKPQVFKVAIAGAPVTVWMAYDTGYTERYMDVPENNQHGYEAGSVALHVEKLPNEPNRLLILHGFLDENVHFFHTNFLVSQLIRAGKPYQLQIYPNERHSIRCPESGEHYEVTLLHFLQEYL
Text: as §1, §2

DPP4 = target: T3, DPP4 (Homo sapiens, UniProt P27487); assay: DPP4 IC50 measurement (Ala-Pro-pNA); conditions: for IC50: Ala-Pro-pNA 25 μM, pH 7.4; for Selectivity index DPP4: IC50(DPP4)/IC50(FAP)
T3 construct: DPP4 was purified from human seminal plasma; from tissue; host or cells: human seminal plasma
T3 sequence (P27487 whole entry): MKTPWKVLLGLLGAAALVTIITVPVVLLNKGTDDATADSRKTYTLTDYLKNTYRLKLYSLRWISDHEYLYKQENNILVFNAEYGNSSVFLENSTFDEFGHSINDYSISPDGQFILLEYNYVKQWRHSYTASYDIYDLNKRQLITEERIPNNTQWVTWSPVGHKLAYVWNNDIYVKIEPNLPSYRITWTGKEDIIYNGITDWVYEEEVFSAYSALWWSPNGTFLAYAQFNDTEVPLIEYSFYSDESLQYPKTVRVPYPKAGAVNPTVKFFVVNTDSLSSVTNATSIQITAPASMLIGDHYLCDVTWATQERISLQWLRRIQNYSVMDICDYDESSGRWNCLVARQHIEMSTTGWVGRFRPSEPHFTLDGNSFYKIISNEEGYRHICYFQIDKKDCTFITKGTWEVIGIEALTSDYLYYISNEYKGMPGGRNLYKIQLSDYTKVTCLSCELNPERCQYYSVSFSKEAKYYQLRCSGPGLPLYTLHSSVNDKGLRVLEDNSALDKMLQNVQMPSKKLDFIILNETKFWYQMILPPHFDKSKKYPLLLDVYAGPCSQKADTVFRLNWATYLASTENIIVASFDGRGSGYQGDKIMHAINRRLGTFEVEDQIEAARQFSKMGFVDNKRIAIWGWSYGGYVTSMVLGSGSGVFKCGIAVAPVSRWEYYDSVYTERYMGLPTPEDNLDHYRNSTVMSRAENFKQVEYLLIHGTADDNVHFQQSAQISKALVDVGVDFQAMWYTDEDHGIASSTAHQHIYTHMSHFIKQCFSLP
Text: as §1, §2

human DPP8 = target: T4, human DPP8 (Homo sapiens, UniProt Q6V1X1); assay: DPP8 IC50 measurement (Ala-Pro-pNA); conditions: for IC50: Ala-Pro-pNA 300 μM, pH 7.4, read-out: DPP8 IC50; for Selectivity index DPP8: IC50(DPP8)/IC50(FAP)
T4 construct: made in house; host or cells: Sf9 insect cells (baculovirus)
T4 sequence (Q6V1X1 whole entry): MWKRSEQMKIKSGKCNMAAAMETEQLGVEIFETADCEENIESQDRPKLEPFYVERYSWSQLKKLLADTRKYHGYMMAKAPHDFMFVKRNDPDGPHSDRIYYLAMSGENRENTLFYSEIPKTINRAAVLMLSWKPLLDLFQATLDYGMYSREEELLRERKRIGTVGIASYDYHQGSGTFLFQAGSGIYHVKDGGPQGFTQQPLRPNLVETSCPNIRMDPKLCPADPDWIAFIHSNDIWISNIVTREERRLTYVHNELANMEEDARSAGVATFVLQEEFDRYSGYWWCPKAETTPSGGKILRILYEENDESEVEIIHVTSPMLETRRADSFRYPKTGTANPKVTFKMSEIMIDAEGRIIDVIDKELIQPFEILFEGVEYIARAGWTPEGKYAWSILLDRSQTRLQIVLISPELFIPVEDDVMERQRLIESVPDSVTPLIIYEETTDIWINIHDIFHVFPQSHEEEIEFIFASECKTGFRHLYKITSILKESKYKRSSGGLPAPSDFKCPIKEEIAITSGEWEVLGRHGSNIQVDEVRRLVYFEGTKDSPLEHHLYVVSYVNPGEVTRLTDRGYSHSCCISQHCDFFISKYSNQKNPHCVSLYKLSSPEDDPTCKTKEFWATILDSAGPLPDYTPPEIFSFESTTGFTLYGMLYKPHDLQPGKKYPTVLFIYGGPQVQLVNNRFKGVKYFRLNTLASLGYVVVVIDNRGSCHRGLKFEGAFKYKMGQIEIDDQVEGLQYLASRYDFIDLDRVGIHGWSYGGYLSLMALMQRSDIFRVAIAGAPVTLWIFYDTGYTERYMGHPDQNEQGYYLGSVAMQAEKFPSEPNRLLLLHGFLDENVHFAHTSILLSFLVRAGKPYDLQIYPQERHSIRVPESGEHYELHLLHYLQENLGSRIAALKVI
Text: as §1, §2

human FAP = target: T5, human FAP (Homo sapiens, UniProt Q12884); assay: FAP IC50 measurement (Z-Gly-Pro-AMC); conditions: Z-Gly-Pro-AMC 50 μM, pH 8, 15 min pre-incubation
T5 construct: the human secretion signal was replaced with the HoneyBee mellitin secretion signal; honeybee melittin secretion signal (replaces the native signal) (N); made in house; host or cells: Sf9 insect cells (baculovirus), purified from supernatant
T5 sequence (Q12884 26-760 limits assumed): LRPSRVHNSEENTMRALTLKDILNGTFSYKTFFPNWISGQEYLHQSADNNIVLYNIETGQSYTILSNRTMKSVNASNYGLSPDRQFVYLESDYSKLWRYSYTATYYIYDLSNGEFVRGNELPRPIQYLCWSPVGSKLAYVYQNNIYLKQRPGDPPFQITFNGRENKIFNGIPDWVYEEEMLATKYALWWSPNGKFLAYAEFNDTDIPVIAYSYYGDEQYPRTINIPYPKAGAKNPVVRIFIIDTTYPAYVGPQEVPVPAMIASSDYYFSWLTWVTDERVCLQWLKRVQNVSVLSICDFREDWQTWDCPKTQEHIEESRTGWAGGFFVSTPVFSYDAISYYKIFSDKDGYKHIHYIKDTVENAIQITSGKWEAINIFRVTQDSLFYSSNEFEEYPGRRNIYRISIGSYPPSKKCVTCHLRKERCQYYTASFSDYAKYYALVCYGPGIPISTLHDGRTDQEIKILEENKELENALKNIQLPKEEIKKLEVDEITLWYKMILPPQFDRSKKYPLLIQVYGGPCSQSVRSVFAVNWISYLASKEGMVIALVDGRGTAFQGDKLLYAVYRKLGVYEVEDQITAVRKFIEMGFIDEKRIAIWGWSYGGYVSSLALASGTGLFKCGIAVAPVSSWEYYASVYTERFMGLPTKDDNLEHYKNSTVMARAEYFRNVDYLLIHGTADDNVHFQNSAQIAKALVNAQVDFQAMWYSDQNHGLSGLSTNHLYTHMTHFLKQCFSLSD
Text: as §1, §2

Row | Selectivity index PREP (Human recombinant PREP) | IC50 (Human recombinant PREP) | IC50 (human DPP9) | Selectivity index DPP9 (human DPP9) | IC50 (DPP4) | Selectivity index DPP4 (DPP4) | IC50 (human DPP8) | Selectivity index DPP8 (human DPP8) | IC50 (human FAP) | Structure (SMILES)
1 | >17000 | > 10000 nM | > 1000 nM | >1700 | > 1000 nM | >17000 | > 1000 nM | >1700 | 0.57 ± 0.05 nM | C[N+]1(CCCOc2ccc3nccc(C(=O)NCC(=O)N4CC(F)(F)C[C@H]4C#N)c3c2)CCN(C(=O)c2ccc(B(O)O)cc2)CC1.Cc1ccc(S(=O)(=O)[O-])cc1 [Compound 12, (S)-4-(4-boronobenzoyl)-1-(3-((4-((2-(2-cyano-4,4-difluoropyrrolidin-1-yl)-2-oxoethyl)carbamoyl)quinolin-6-yl)oxy)propyl)-1-methylpiperazin-1-ium 4-methylbenzenesulfonate]
2 | >22000 | > 10000 nM | 670 ± 30 nM | >2200 | > 10000 nM | >22000 | > 1000 nM | >2200 | 0.44 ± 0.1 nM | C[N+]1(CCCOc2ccc3nccc(C(=O)NCC(=O)N4CC(F)(F)C[C@H]4C#N)c3c2)CCN(C(=O)c2ccc(I)cc2)CC1 [Compound 13, (S)-1-(3-((4-((2-(2-cyano-4,4-difluoropyrrolidin-1-yl)-2-oxoethyl)carbamoyl)quinolin-6-yl)oxy)propyl)-4-(4-iodobenzoyl)-1-methylpiperazin-1-ium hexafluorophosphate(V)]
3 | >10000 | > 10000 nM | > 1000 nM | >1000 | > 10000 nM | >10000 | > 10000 nM | >10000 | 0.95 ± 0.1 nM | C[N+]1(CCCOc2ccc3nccc(C(=O)NCC(=O)N4CC(F)(F)C[C@H]4C#N)c3c2)CCN(C(=O)c2ccc(F)cc2)CC1 [Compound 14, (S)-1-(3-((4-((2-(2-cyano-4,4-difluoropyrrolidin-1-yl)-2-oxoethyl)carbamoyl)quinolin-6-yl)oxy)propyl)-4-(4-fluorobenzoyl)-1-methylpiperazin-1-ium]
